Assay results reported in article PMC5218480 (PLoS ONE, 2017).

Test system: MV-4-11 cells
Assay: Gene expression microarray analysis (Affymetrix PrimeView) and GSEA
Assay type: cell-based, human
Set-up: RFU PODN (11730768_x_at) / Fold change /veh PODN (11730768_x_at) / RFU LINC00158 (11744669_a_at) / Fold change /veh LINC00158 (11744669_a_at) / RFU DUSP10 (11751237_a_at) / Fold change /veh DUSP10 (11751237_a_at) / RFU ID3 (11757404_x_at) / Fold change /veh ID3 (11757404_x_at) / RFU PLEKHG5 (11737974_s_at) / Fold change /veh PLEKHG5 (11737974_s_at) / RFU LRRC4B (11730491_at) / Fold change /veh LRRC4B (11730491_at) / RFU GIMAP4 (11747438_a_at) / Fold change /veh GIMAP4 (11747438_a_at) / RFU KRT8 (11758183_x_at) / Fold change /veh KRT8 (11758183_x_at) / RFU CNN1 (11734310_a_at) / Fold change /veh CNN1 (11734310_a_at) / RFU VPS37D (11726825_at) / Fold change /veh VPS37D (11726825_at) / RFU C10orf10 (11716522_x_at) / Fold change /veh C10orf10 (11716522_x_at) / RFU KIR2DL2 /// KIR2DL4 /// KIR2DL5A /// KIR2DL5B /// KIR2DS1 /// KIR2DS2 /// KIR2DS3 /// KIR2DS4 /// KIR3DL3 /// KIR3DL3 /// KIR3DS1 (11738374_at) / Fold change /veh KIR2DL2 /// KIR2DL4 /// KIR2DL5A /// KIR2DL5B /// KIR2DS1 /// KIR2DS2 /// KIR2DS3 /// KIR2DS4 /// KIR3DL3 /// KIR3DL3 /// KIR3DS1 (11738374_at) / RFU C1QL1 (11718748_at) / Fold change /veh C1QL1 (11718748_at) / RFU TMPRSS4 (11747572_a_at) / Fold change /veh TMPRSS4 (11747572_a_at) / RFU HAMP (11756126_x_at) / Fold change /veh HAMP (11756126_x_at) / RFU RNFT2 (11725882_a_at) / Fold change /veh RNFT2 (11725882_a_at) / RFU NR4A2 (11747474_a_at) / Fold change /veh NR4A2 (11747474_a_at) / RFU ABCC12 (11746883_a_at) / Fold change /veh ABCC12 (11746883_a_at) / RFU TMEM136 (11760407_x_at) / Fold change /veh TMEM136 (11760407_x_at) / RFU CLDN22 /// WWC2 (11732394_at) / Fold change /veh CLDN22 /// WWC2 (11732394_at) / RFU HLA-DPB1 (11760878_x_at) / Fold change /veh HLA-DPB1 (11760878_x_at) / RFU SPINT1 (11716480_a_at) / Fold change /veh SPINT1 (11716480_a_at) / RFU GAP43 (11754022_s_at) / Fold change /veh GAP43 (11754022_s_at) / RFU A4GNT (11735810_at) / Fold change /veh A4GNT (11735810_at) / RFU PRB3 (11715151_x_at) / Fold change /veh PRB3 (11715151_x_at) / RFU TUBB4B (11761932_at) / Fold change /veh TUBB4B (11761932_at) / RFU CAPN14 (11732068_a_at) / Fold change /veh CAPN14 (11732068_a_at) / RFU TMCC2 (11721928_a_at) / Fold change /veh TMCC2 (11721928_a_at) / RFU IRGQ (11745062_a_at) / Fold change /veh IRGQ (11745062_a_at) / RFU FAM174B (11720279_a_at) / Fold change /veh FAM174B (11720279_a_at) / RFU TMPRSS4 (11748680_a_at) / Fold change /veh TMPRSS4 (11748680_a_at) / RFU FAM212B (11763350_a_at) / Fold change /veh FAM212B (11763350_a_at) / RFU PLEKHG5 (11743358_a_at) / Fold change /veh PLEKHG5 (11743358_a_at) / RFU ZSCAN30 (11745921_a_at) / Fold change /veh ZSCAN30 (11745921_a_at) / RFU CMKLR1 (11741424_a_at) / Fold change /veh CMKLR1 (11741424_a_at) / RFU LOC101060620 /// MAPK8IP1 (11723275_at) / Fold change /veh LOC101060620 /// MAPK8IP1 (11723275_at) / RFU SPTSSB (11747773_x_at) / Fold change /veh SPTSSB (11747773_x_at) / RFU PRSS12 (11739890_at) / Fold change /veh PRSS12 (11739890_at) / RFU BIN1 (11741810_x_at) / Fold change /veh BIN1 (11741810_x_at) / RFU WNT11 (11732464_a_at) / Fold change /veh WNT11 (11732464_a_at) / RFU C10orf10 (11716521_a_at) / Fold change /veh C10orf10 (11716521_a_at) / RFU C5orf56 (11738089_at) / Fold change /veh C5orf56 (11738089_at) / RFU CYB561 (11721691_x_at) / Fold change /veh CYB561 (11721691_x_at) / RFU ANKRD19P (11752326_a_at) / Fold change /veh ANKRD19P (11752326_a_at) / RFU OR2T12 /// OR2T33 /// OR2T8 (11738714_s_at) / Fold change /veh OR2T12 /// OR2T33 /// OR2T8 (11738714_s_at) / RFU VCAN (11748164_a_at) / Fold change /veh VCAN (11748164_a_at) / RFU JSRP1 (11732532_at) / Fold change /veh JSRP1 (11732532_at) / RFU KRTAP10-11 (11738290_x_at) / Fold change /veh KRTAP10-11 (11738290_x_at) / RFU MYO3A (11730013_a_at) / Fold change /veh MYO3A (11730013_a_at) / RFU EBF3 (11725865_a_at) / Fold change /veh EBF3 (11725865_a_at) / RFU CAMK2N1 (11719241_x_at) / Fold change /veh CAMK2N1 (11719241_x_at) / RFU C5orf56 (11738088_a_at) / Fold change /veh C5orf56 (11738088_a_at) / RFU OLFML3 (11715873_a_at) / Fold change /veh OLFML3 (11715873_a_at) / RFU LOC100653217 /// NTM (11731650_a_at) / Fold change /veh LOC100653217 /// NTM (11731650_a_at) / RFU MAPK11 (11762145_a_at) / Fold change /veh MAPK11 (11762145_a_at) / RFU FIZ1 (11724087_x_at) / Fold change /veh FIZ1 (11724087_x_at) / RFU OASL (11726364_x_at) / Fold change /veh OASL (11726364_x_at) / RFU SOX15 (11748057_x_at) / Fold change /veh SOX15 (11748057_x_at) / RFU CD79A (11719716_a_at) / Fold change /veh CD79A (11719716_a_at) / RFU HIST1H1D (11736915_at) / Fold change /veh HIST1H1D (11736915_at) / RFU CASKIN2 (11723855_a_at) / Fold change /veh CASKIN2 (11723855_a_at) / RFU LOC730098 (11760151_x_at) / Fold change /veh LOC730098 (11760151_x_at) / RFU OR4N2 (11742367_at) / Fold change /veh OR4N2 (11742367_at) / RFU PRRT2 (11749266_a_at) / Fold change /veh PRRT2 (11749266_a_at) / RFU SNX32 (11753110_a_at) / Fold change /veh SNX32 (11753110_a_at) / RFU CDHR5 (11726645_a_at) / Fold change /veh CDHR5 (11726645_a_at) / RFU RCAN1 (11760418_a_at) / Fold change /veh RCAN1 (11760418_a_at) / RFU FAM167A (11723789_a_at) / Fold change /veh FAM167A (11723789_a_at) / RFU FAM26E (11764081_at) / Fold change /veh FAM26E (11764081_at) / RFU ISYNA1 (11749810_s_at) / Fold change /veh ISYNA1 (11749810_s_at) / RFU ACY1 (11761880_at) / Fold change /veh ACY1 (11761880_at) / RFU 11764098_at / Fold change /veh 11764098_at / RFU SAMD14 (11745864_x_at) / Fold change /veh SAMD14 (11745864_x_at) / RFU NPB (11741838_a_at) / Fold change /veh NPB (11741838_a_at) / RFU TMPRSS6 (11731388_a_at) / Fold change /veh TMPRSS6 (11731388_a_at) / RFU KRTAP10-2 (11738614_at) / Fold change /veh KRTAP10-2 (11738614_at) / RFU ARHGAP8 /// PRR5-ARHGAP8 (11727945_x_at) / Fold change /veh ARHGAP8 /// PRR5-ARHGAP8 (11727945_x_at) / RFU KRTAP5-7 /// NADSYN1 (11734609_at) / Fold change /veh KRTAP5-7 /// NADSYN1 (11734609_at) / RFU RASL12 (11751679_a_at) / Fold change /veh RASL12 (11751679_a_at) / RFU CDKN2B (11736163_a_at) / Fold change /veh CDKN2B (11736163_a_at) / RFU PRF1 (11729649_at) / Fold change /veh PRF1 (11729649_at) / RFU, ZNF638 /// ZNF638-IT1 / Fold change vs veh, ZNF638 /// ZNF638-IT1 / RFU, PANK3 / Fold change vs veh, PANK3 / RFU, SH3YL1 / Fold change vs veh, SH3YL1 / RFU, ZEB2 / Fold change vs veh, ZEB2 / RFU, NRIP1 / Fold change vs veh, NRIP1 / RFU, PTTG1IP / Fold change vs veh, PTTG1IP / RFU, CAPN2 / Fold change vs veh, CAPN2 / RFU, MED14 / Fold change vs veh, MED14 / RFU, SNORA58 / Fold change vs veh, SNORA58 / RFU, C1orf63 / Fold change vs veh, C1orf63 / RFU, LRRFIP1 / Fold change vs veh, LRRFIP1 / RFU, NDUFAF7 / Fold change vs veh, NDUFAF7 / RFU, SLC12A2 / Fold change vs veh, SLC12A2 / RFU, IBTK / Fold change vs veh, IBTK / RFU, ESF1 / Fold change vs veh, ESF1 / Fold change vs veh, TMEM50B / RFU, TAOK1 / Fold change vs veh, TAOK1 / RFU, ACBD3 / Fold change vs veh, ACBD3 / RFU, TMA16 / Fold change vs veh, TMA16 / RFU, RWDD3 / Fold change vs veh, RWDD3 / RFU, BCAT1 / Fold change vs veh, BCAT1 / RFU, EDEM3 / Fold change vs veh, EDEM3 / RFU, TMEM33 / Fold change vs veh, TMEM33 / RFU, WDR75 / Fold change vs veh, WDR75 / RFU, AHCTF1 / Fold change vs veh, AHCTF1 / RFU, TFRC / Fold change vs veh, TFRC / RFU, ZDHHC17 / Fold change vs veh, ZDHHC17 / RFU, NOM1 / Fold change vs veh, NOM1 / RFU, ARL8B / Fold change vs veh, ARL8B / RFU, ZBTB11 / Fold change vs veh, ZBTB11 / RFU, TAMM41 / Fold change vs veh, TAMM41 / RFU, KIAA1704 /// LOC100996395 / Fold change vs veh, KIAA1704 /// LOC100996395 / RFU, ING1 / Fold change vs veh, ING1 / RFU, TRMT61B / Fold change vs veh, TRMT61B / RFU, FUBP3 / Fold change vs veh, FUBP3 / RFU, TP53 / Fold change vs veh, TP53 / RFU, TNKS2 / Fold change vs veh, TNKS2 / RFU, ZFP14 / Fold change vs veh, ZFP14 / RFU, ACTR2 / Fold change vs veh, ACTR2 / RFU, PPP3R1 / Fold change vs veh, PPP3R1 / RFU, PIK3R1 / Fold change vs veh, PIK3R1 / RFU, HNRNPA1 / Fold change vs veh, HNRNPA1 / RFU, RNF170 / Fold change vs veh, RNF170 / RFU, ZNF28 / Fold change vs veh, ZNF28 / RFU, RNGTT / Fold change vs veh, RNGTT / RFU, OGT / Fold change vs veh, OGT / RFU, BRD1 / Fold change vs veh, BRD1 / RFU, MARS / Fold change vs veh, MARS / RFU, ZNF655 / Fold change vs veh, ZNF655 / RFU, FAHD1 / Fold change vs veh, FAHD1 / RFU, BDP1 / Fold change vs veh, BDP1 / RFU, LRRCC1 / Fold change vs veh, LRRCC1 / RFU, ARID1A / Fold change vs veh, ARID1A / RFU, ZNF146 / Fold change vs veh, ZNF146 / RFU, ZNF330 / Fold change vs veh, ZNF330 / RFU, GPN3 / Fold change vs veh, GPN3 / RFU, C9orf123 / Fold change vs veh, C9orf123 / RFU, N4BP2L2 / Fold change vs veh, N4BP2L2 / RFU, ARFIP1 / Fold change vs veh, ARFIP1 / RFU, FAM179B / Fold change vs veh, FAM179B / RFU, BCL10 / Fold change vs veh, BCL10 / RFU, UHRF1BP1L / Fold change vs veh, UHRF1BP1L / RFU, BET1 / Fold change vs veh, BET1 / RFU, CNOT2 / Fold change vs veh, CNOT2 / RFU, ZNF268 / Fold change vs veh, ZNF268 / Fold change vs veh, ZNF507 / RFU, DGCR2 / Fold change vs veh, DGCR2 / RFU, WDSUB1 / Fold change vs veh, WDSUB1 / Fold change vs veh, HSP90B1 /// MIR3652 / RFU, ADSS / Fold change vs veh, ADSS / RFU, GK / Fold change vs veh, GK / RFU, ZNF148 / Fold change vs veh, ZNF148 / RFU, TAF9 / Fold change vs veh, TAF9 / RFU, SLC1A5 / Fold change vs veh, SLC1A5 / RFU, SLMO2 / Fold change vs veh, SLMO2 / RFU, ABCC4 / Fold change vs veh, ABCC4 / RFU, LOC101060439 /// RAP1B / Fold change vs veh, LOC101060439 /// RAP1B / RFU, RFX7 / Fold change vs veh, RFX7 / RFU, GTPBP10 / Fold change vs veh, GTPBP10 / RFU, CNEP1R1 / Fold change vs veh, CNEP1R1 / RFU, BIVM-ERCC5 /// ERCC5 / Fold change vs veh, BIVM-ERCC5 /// ERCC5 / RFU, ILF3 / Fold change vs veh, ILF3 / RFU 11762660_at / Fold change /veh 11762660_at / RFU VCAN (11757783_s_at) / Fold change /veh VCAN (11757783_s_at) / RFU DDX43 (11728927_at) / Fold change /veh DDX43 (11728927_at) / RFU KRT8 (11758188_x_at) / Fold change /veh KRT8 (11758188_x_at) / RFU NKD1 (11759106_at) / Fold change /veh NKD1 (11759106_at) / RFU SRD5A1 (11742802_a_at) / Fold change /veh SRD5A1 (11742802_a_at) / RFU TPSAB1 /// TPSB2 (11721975_s_at) / Fold change /veh TPSAB1 /// TPSB2 (11721975_s_at) / RFU GSTM3 (11746129_a_at) / Fold change /veh GSTM3 (11746129_a_at) / RFU IL23R (11737362_x_at) / Fold change /veh IL23R (11737362_x_at) / RFU TMEM51 (11727254_a_at) / Fold change /veh TMEM51 (11727254_a_at) / RFU PIWIL2 (11732686_x_at) / Fold change /veh PIWIL2 (11732686_x_at) / RFU ORM1 (11744905_x_at) / Fold change /veh ORM1 (11744905_x_at) / RFU CCDC152 (11743942_at) / Fold change /veh CCDC152 (11743942_at) / RFU ECM1 (11717891_a_at) / Fold change /veh ECM1 (11717891_a_at) / RFU IL23R (11748794_a_at) / Fold change /veh IL23R (11748794_a_at) / RFU TNFAIP8L3 (11732012_x_at) / Fold change /veh TNFAIP8L3 (11732012_x_at) / RFU MBOAT4 (11741988_at) / Fold change /veh MBOAT4 (11741988_at) / RFU 11764193_at / Fold change /veh 11764193_at / RFU TMEM53 (11763286_at) / Fold change /veh TMEM53 (11763286_at) / RFU MAGEB2 (11727129_at) / Fold change /veh MAGEB2 (11727129_at) / RFU TMEM200A (11744735_a_at) / Fold change /veh TMEM200A (11744735_a_at) / RFU CCDC152 (11751479_a_at) / Fold change /veh CCDC152 (11751479_a_at) / RFU FAM211A (11726209_a_at) / Fold change /veh FAM211A (11726209_a_at) / RFU RGS16 (11746705_a_at) / Fold change /veh RGS16 (11746705_a_at) / RFU VCAN (11755009_s_at) / Fold change /veh VCAN (11755009_s_at) / RFU RHOB (11743442_s_at) / Fold change /veh RHOB (11743442_s_at) / RFU RGS16 (11720943_a_at) / Fold change /veh RGS16 (11720943_a_at) / RFU RGS16 (11720944_at) / Fold change /veh RGS16 (11720944_at) / RFU, VPS4B / Fold change vs veh, VPS4B / RFU, CREB1 / Fold change vs veh, CREB1 / RFU, DNAJC13 / Fold change vs veh, DNAJC13 / RFU, GNAQ / Fold change vs veh, GNAQ / RFU, CDK5R1 / Fold change vs veh, CDK5R1 / RFU, ZRANB3 / Fold change vs veh, ZRANB3 / RFU, CUL4A / Fold change vs veh, CUL4A / RFU, CCNY / Fold change vs veh, CCNY / RFU, UFL1 / Fold change vs veh, UFL1 / RFU, COG3 / Fold change vs veh, COG3 / RFU, DIAPH2 / Fold change vs veh, DIAPH2 / RFU, SKA2 / Fold change vs veh, SKA2 / RFU, AFF3 / Fold change vs veh, AFF3 / RFU, LMF1 / Fold change vs veh, LMF1 / RFU, IPO11 / Fold change vs veh, IPO11 / RFU, DFFB / Fold change vs veh, DFFB / RFU, FOXP1 / Fold change vs veh, FOXP1 / RFU, CARD8 / Fold change vs veh, CARD8 / RFU, STRN3 / Fold change vs veh, STRN3 / RFU, ADK / Fold change vs veh, ADK / RFU, RASSF2 / Fold change vs veh, RASSF2 / RFU, WIPF1 / Fold change vs veh, WIPF1 / RFU, LARP1B / Fold change vs veh, LARP1B / RFU, RASA1 / Fold change vs veh, RASA1 / RFU, RB1 / Fold change vs veh, RB1 / RFU, PPFIA1 / Fold change vs veh, PPFIA1 / RFU, MAT2A / Fold change vs veh, MAT2A / RFU, CCT5 / Fold change vs veh, CCT5 / RFU, WDR92 / Fold change vs veh, WDR92 / RFU, CUX1 / Fold change vs veh, CUX1 / RFU, TTC7A / Fold change vs veh, TTC7A / RFU, TMEM135 / Fold change vs veh, TMEM135 / RFU, DEPTOR / Fold change vs veh, DEPTOR / RFU, CPM / Fold change vs veh, CPM / RFU, DNAJB6 / Fold change vs veh, DNAJB6 / RFU, CACNA2D3 / Fold change vs veh, CACNA2D3 / RFU, DTX4 / Fold change vs veh, DTX4 / RFU, TFCP2 / Fold change vs veh, TFCP2 / RFU, GMCL1 /// GMCL1P1 / Fold change vs veh, GMCL1 /// GMCL1P1 / RFU, AEBP2 / Fold change vs veh, AEBP2 / RFU, SNHG1 /// SNORD22 /// SNORD25 /// SNORD26 /// SNORD27 /// SNORD28 /// SNORD29 /// SNORD31 / Fold change vs veh, SNHG1 /// SNORD22 /// SNORD25 /// SNORD26 /// SNORD27 /// SNORD28 /// SNORD29 /// SNORD31 / Fold change (Aza/veh), C12orf56 (ProbeSet 11735607_a_at) / Fold change (ACY-1035/veh), C12orf56 (ProbeSet 11735607_a_at) / Fold change (Aza/veh), FGFR1OP (ProbeSet 11751329_s_at) / Fold change (ACY-1035/veh), FGFR1OP (ProbeSet 11751329_s_at) / Fold change (Aza/veh), VPS36 (ProbeSet 11739960_a_at) / Fold change (ACY-1035/veh), VPS36 (ProbeSet 11739960_a_at) / RFU SYPL1 (11715823_x_at) / Fold change /veh SYPL1 (11715823_x_at) / RFU IGFBP7 (11715501_s_at) / Fold change /veh IGFBP7 (11715501_s_at) / RFU REEP3 (11722064_at) / Fold change /veh REEP3 (11722064_at) / RFU IGLL1 (11728026_x_at) / Fold change /veh IGLL1 (11728026_x_at): dose or concentration left out as unconfirmed
Details: MV-4-11 cells, 48 hours

SMILES: Nc1ccc(-c2cccs2)cc1NC(=O)c1ccc2c(c1)cc(C1CC1)n2CCN1CCOCC1 [ACY-1035]
- Fold change /veh BIN1 (11741810_x_at): 1.15
